Results from patent US4758586A, “Indolyl compounds and hyposensitivity use thereof” (USV Pharmaceutical Corp., priority 1986, dated 1988).

Columns and labels:
[1] = test system: Phospholipase C (PLC); experiment: In vitro assay for inhibitors of Phospholipase C (PLC) from rat platelets; type: biochemical; conditions: read-out: PLC, I50
From the text: A. Protocol For In Vitro Assay For Inhibitors Of Phospholipase C (PLC)
The PLC employed in this screen is obtained by aggregation of purified rat platelets in the presence of CaCl2 and ADP. In the enzyme assay phosphatidylinositol having ^3 H -labeled arachidonate residues at R2 is employed as substrate. PLC acts by cleaving the phosphate ester bond yielding diglyceride as follows: [drawing 18]
Following completion of the reaction, the assay medium is acidified and extracted with hexane which takes up unreacted substrate and diglyceride. The hexane extract is passed over a short silica gel column which retains 99% of the phosphatidylinositol. The ^3 H-labeled diglyceride is not retained […]. The diglyceride is conveniently quantitated by liquid scintillation spectrometry.
The compounds were tested at 300 u in a buffer containing 0.06 mM unlabeled phosphatidylcholine (PC), 20-30,000 cpm of (CPC), 150 mM NaCl, 5 mM CaCl2 and 50 mM tris(hydroxymethyl)methylaminopropanesulfonic acid buffer, adjusted to pH 9.0 with 1N NaOH. The temperature of the buffer was maintained at a temperature of 37° C. The reaction was initiated by addition of the enzyme and it was terminated 10 minutes later by addition of 1 ml of 1N HCl.
Following acidification, the samples were extracted with 2 ml of isopropyl alcohol and 2 ml of hexane, vortexed and allowed to stand until the phases separate. […] and some unreacted substrate were taken up in the isopropanol-saturated hexane. The hexane phase of the extraction mixture was transferred to a short silica gel column which retains unreacted phosphatidylinositol, but not the 3H-diglyceride. The column effluent was collected directly in scintillation vials. The columns were washed once with additional 2 ml of hexane. The radiolabelled diglycerides were quantitated by liquid scintillation.

[2] = test system: leukotriene C4 -induced contraction of guinea pig peripheral strips; experiment: SRS-A antagonists (SALTI): leukotriene C4-induced contraction of guinea pig peripheral lung strips; conditions: Cavia porcellus; 0.2 μM leukotriene C4-induced contraction; read-out: SALTI, I50 μM
Protocol: Protocol for SRS-A (Slow-reacting Substance of Anaphylaxis Antagonists (SALTI)
Peripheral strips of guinea pig lungs are prepared and hung in tissue baths (Metro #ME-5505, 10 ml) according to the published procedure (Pro. Nat'l. Acad. Sci., U.S.A. Volume 77, pp. 4354-4358, 1980). The strips are thoroughly rinsed in Assay Buffer and then connected with surgical silk thread to the support rods from the tissue baths. The rods are adjusted in the baths and the strips connected to the pressure transducers (Grass FT 103 or Gould UC-3). The tissue baths are aerated with 95% oxygen 5% carbon dioxide and maintained at 37° C. The Assay Buffer has been made as follows: For each liter of buffer the following are added to approximately 800 ml of water distilled in glass--6.87 g. NaCl, 0.4 g. KCl, […]. NaHCO3, 0.14 g. NaH2 PO4.H2 O, 0.21 g. MgSO4.7H2 O, and 2.0 g. D-glucose. Then a solution of 0.368 g. CaCl2.2H2 O in 100 ml glass-distilled water is slowly added to the buffer. Sufficient water is added to adjust the volume to one liter, and the solution is aerated with 95% oxygen--5% carbon dioxide. Usually 10 liters of buffer are used for an experiment with 4 tissues.
After the tissues have been repeatedly washed and allowed to equilibrate in the tissue bath, they are challenged with 1 μM histamine. After maximum contractions have been obtained, the tissues are washed, and allowed to relax back to baseline tension. This histamine challenge procedure is repeated at least 1 to 2 more times to obtain a repeatable control response. The average response to 1 μM histamine for each tissue is used to normalize all other challenges.
Responses of each tissue to a predetermined concentration of leukotriene are then obtained. Usually test compounds are examined initially at 30 μM on resting tension of the tissues without any added agonist or antagonist to determine if the compound has any possible intrinsic activity. The tissues are washed, and the test compound is added again. Leukotriene is added after the desired pre-incubation time. The intrinsic activity of the compounds, and their effect on leukotriene-induced contractions are then recorded.
The concentration required for 50% inhibition of 0.2 μM leukotriene C4 -induced contraction of guinea pig peripheral strips for representative compounds of the present invention is shown in Table 3.

CCC(=CC=Cc1cn(Cc2ccccc2)c2ccccc12)C(=O)O [Example 9, 5-(1-Benzylindol-3-yl)-2-Ethyl-2,4-Pentadienoic Acid]
IC50 [1]: 37 µM
IC50 [2]: 18 µM
